Measured values reported in patent US20210030796A1, “METHOD FOR PRODUCING ANTIGEN-SPECIFIC T CELLS” (Thyas Co. Ltd., priority 2019, published 2021).

Key:
[1] = system: mononuclear cells from peripheral blood of a healthy subject (CD137+ T cells); assay: T cell activation by EBV-LMP2A antigenic peptide stimulation, CD137 flow cytometry; assay type: cell-based, human; conditions: addition of CMA (0.3 to 3 μM per Example 1), two samples of PBMC from a healthy subject
Experimental: Re-inoculate in a 24-well plate. Add 0.3 to 3 μM Concanamycin A to a medium and incubate at 37° C. and 5% CO2 for 2 hours. Add 10 μg/ml EBV LMP2A peptide and culture at 37° C. and 5% CO2 for 24 hours. Suspend 2×10^6 cells of peripheral blood mononuclear cells (PBMC) separated from peripheral blood of a healthy subject in a MEM-alpha medium added with 10% FBS, 200 U IL-2 and 20 μg/ml IL-15, and add 10 μg/ml EBV LMP2A peptide. Start culturing at 37° C. and 5% CO2. Replace the medium and divide the wells every 2 to 5 days according to amplification rate of the cells. Culture for 12 days. Collect the cells on day 12 and re-inoculate in a 24-well plate at 2×10^6 cells/well. Add 0.3 to 3 μM Concanamycin A to the medium and incubate at 37° C. and 5% CO2 for 2 hours. Then, add 10 μg/ml EBV LMP2A peptide and culture at 37° C. and 5% CO2 for 24 hours. After 24 hours, stain the cells with CD8-PerCP/Cy5.5 antibody and CD137-PE antibody, and analyze using a flow cytometer (BD FACS Aria II).

[2] = system: mononuclear cells from peripheral blood of a leukemia patient (CD137-expressing T cells); assay: T cell activation by WT1 antigenic peptide stimulation, CD137 expression; assay type: cell-based, human; conditions: FIG. 3; medium added with 1 μM CMA; two samples of PBMC from a leukemia patient

Which “percentage of CD137+ T cells activated with EBV-LMP2A peptide” value ([1]; FIG. 1) does the source give for C/C=C/[C@H]1O[C@@](O)([C@@H](C)[C@H](O)[C@H](C)[C@H]2OC(=O)/C(OC)=C/C(C)=C/[C@@H](C)[C@@H](O)[C@@H](CC)[C@@H](O)[C@H](C)C/C(C)=C/C=C/[C@@H]2OC)C[C@@H](O[C@H]2C[C@@H](O)[C@H](OC(N)=O)[C@@H](C)O2)[C@@H]1C [Concanamycin A] here?
The value was “increased”.

And the “number of CD137+ T cells activated with EBV-LMP2A peptide” value ([1]; FIG. 2)?
Its value is “increased”.

And the “percentage of T cells activated (CD137-expressing) by WT1 peptide stimulation” value [2]?
The value was “induced”.
